#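 Tested at 5 concentrations; 48 h exposure; 96-well plates; endpoints linearly interpolated, else capped at highest concentration. GI50 = concentration required for 50% inhibition of growth.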 Calls of active or inactive are those of the source. Cut-off read from the data, not from the text of the source: active = GI50 up to about 1.1 µM and inactive = higher.
# Tests used:
# Assay in all cases: inhibition of tumour cell growth, NCI panel, 48 h
# DU-145 = tested on: DU-145
# HCT-116 = tested on: HCT-116
# IGROV-1 = tested on: IGROV-1
# T47D = tested on: T47D
# U-251 = tested on: U-251
# SN12C = tested on: SN12C
# MCF7 = tested on: MCF7
# A498 = tested on: A498
# UACC-62 = tested on: UACC-62
# OVCAR-5 = tested on: OVCAR-5
# MDA-MB-435 = tested on: MDA-MB-435
# HCC 2998 = tested on: HCC 2998
# COLO 205 = tested on: COLO 205
# HOP-62 = tested on: HOP-62
# OVCAR-4 = tested on: OVCAR-4
# SNB-19 = tested on: SNB-19
# RPMI-8226 = tested on: RPMI-8226
# HCT-15 = tested on: HCT-15
# TK-10 = tested on: TK-10
# A549 = tested on: A549
# NCI-H522 = tested on: NCI-H522
# HT-29 = tested on: HT-29
# SK-MEL-28 = tested on: SK-MEL-28
# MDA-MB-231 = tested on: MDA-MB-231
# M14 = tested on: M14
# NCI-H460 = tested on: NCI-H460
# Malme-3M = tested on: Malme-3M
# HL-60 = tested on: HL-60
# NCI/ADR-RES = tested on: NCI/ADR-RES
# UACC-257 = tested on: UACC-257
# EKVX = tested on: EKVX
# ACHN = tested on: ACHN
# CCRF-CEM = tested on: CCRF-CEM
# KM12 = tested on: KM12
# UO-31 = tested on: UO-31
# OVCAR-3 = tested on: OVCAR-3
# SW-620 = tested on: SW-620
# MOLT-4 = tested on: MOLT-4
# SR = tested on: SR
# K562 = tested on: K562
# Hs-578T = tested on: Hs-578T
# SK-OV-3 = tested on: SK-OV-3
# 786-0 = tested on: 786-0
# CAKI-1 = tested on: CAKI-1
# SF-295 = tested on: SF-295
# SK-MEL-5 = tested on: SK-MEL-5
# LOX IMVI = tested on: LOX IMVI
# SF-268 = tested on: SF-268
# NCI-H226 = tested on: NCI-H226
# BT-549 = tested on: BT-549
# SK-MEL-2 = tested on: SK-MEL-2
# SF-539 = tested on: SF-539
# SNB-75 = tested on: SNB-75
# RXF 393 = tested on: RXF 393
# NCI-H23 = tested on: NCI-H23
# PC-3 = tested on: PC-3
# OVCAR-8 = tested on: OVCAR-8
# HOP-92 = tested on: HOP-92
compound,measurement,setting,value
CC(C)CC(Nc1c(O)ccc2ccccc12)C(=O)O (stereo not drawn),GI50,DU-145,19.2 µM (inactive)
same,GI50,HCT-116,27.9 µM (inactive)
same,GI50,IGROV-1,32.7 µM (inactive)
same,GI50,T47D,64.7 µM (inactive)
same,GI50,U-251,29.8 µM (inactive)
same,GI50,SN12C,29.3 µM (inactive)
same,GI50,MCF7,41.2 µM (inactive)
same,GI50,A498,23.3 µM (inactive)
same,GI50,UACC-62,23.8 µM (inactive)
same,GI50,OVCAR-5,80.7 µM (inactive)
same,GI50,MDA-MB-435,17.3 µM (inactive)
same,GI50,HCC 2998,25.2 µM (inactive)
same,GI50,COLO 205,> 100 µM (inactive)
same,GI50,HOP-62,83.9 µM (inactive)
same,GI50,OVCAR-4,51.4 µM (inactive)
same,GI50,SNB-19,37.6 µM (inactive)
same,GI50,RPMI-8226,28.2 µM (inactive)
same,GI50,HCT-15,36.9 µM
same,GI50,TK-10,39.9 µM (inactive)
same,GI50,A549,> 100 µM (inactive)
same,GI50,NCI-H522,26.3 µM (inactive)
same,GI50,HT-29,81.8 µM (inactive)
same,GI50,SK-MEL-28,45.9 µM (inactive)
same,GI50,MDA-MB-231,25.4 µM (inactive)
same,GI50,M14,37.8 µM (inactive)
same,GI50,NCI-H460,35.2 µM (inactive)
same,GI50,Malme-3M,15.2 µM (inactive)
same,GI50,HL-60,34.2 µM (inactive)
same,GI50,NCI/ADR-RES,37.8 µM (inactive)
same,GI50,UACC-257,20.5 µM (inactive)
same,GI50,EKVX,17.3 µM (inactive)
same,GI50,ACHN,22.9 µM (inactive)
same,GI50,CCRF-CEM,0.959 µM (active)
same,GI50,KM12,30.6 µM (inactive)
same,GI50,UO-31,27.6 µM (inactive)
same,GI50,OVCAR-3,20.7 µM (inactive)
same,GI50,SW-620,34.4 µM (inactive)
same,GI50,MOLT-4,33 µM (inactive)
same,GI50,SR,28.1 µM (inactive)
same,GI50,K562,58.7 µM (inactive)
same,GI50,Hs-578T,21.6 µM (inactive)
same,GI50,SK-OV-3,27.2 µM (inactive)
same,GI50,786-0,59.3 µM (inactive)
same,GI50,CAKI-1,21.2 µM (inactive)
same,GI50,SF-295,20.5 µM (inactive)
same,GI50,SK-MEL-5,18.3 µM (inactive)
same,GI50,LOX IMVI,31.7 µM (inactive)
same,GI50,SF-268,24.7 µM (inactive)
same,GI50,NCI-H226,20 µM (inactive)
same,GI50,BT-549,19.5 µM (inactive)
same,GI50,SK-MEL-2,17.1 µM (inactive)
same,GI50,SF-539,16.7 µM (inactive)
same,GI50,SNB-75,32.3 µM (inactive)
same,GI50,RXF 393,12.9 µM (inactive)
same,GI50,NCI-H23,19.5 µM (inactive)
O=S1(=O)OC(c2ccc(O)cc2)(c2ccc(O)cc2)c2ccccc21 [PHENOLSULFONPHTHALEIN],GI50,DU-145,> 100 µM (inactive)
same,GI50,HCT-116,> 100 µM (inactive)
same,GI50,IGROV-1,> 100 µM (inactive)
same,GI50,T47D,> 100 µM (inactive)
same,GI50,U-251,> 100 µM (inactive)
same,GI50,PC-3,> 100 µM (inactive)
same,GI50,SN12C,> 100 µM (inactive)
same,GI50,MCF7,> 100 µM (inactive)
same,GI50,A498,> 100 µM (inactive)
same,GI50,UACC-62,> 100 µM (inactive)
same,GI50,OVCAR-5,> 100 µM (inactive)
same,GI50,MDA-MB-435,> 100 µM (inactive)
same,GI50,HCC 2998,> 100 µM (inactive)
same,GI50,COLO 205,> 100 µM (inactive)
same,GI50,HOP-62,> 100 µM (inactive)
same,GI50,OVCAR-4,> 100 µM (inactive)
same,GI50,SNB-19,> 100 µM (inactive)
same,GI50,RPMI-8226,> 100 µM (inactive)
same,GI50,HCT-15,> 100 µM
same,GI50,TK-10,> 100 µM (inactive)
same,GI50,A549,> 100 µM (inactive)
same,GI50,NCI-H522,> 100 µM (inactive)
same,GI50,HT-29,> 100 µM (inactive)
same,GI50,SK-MEL-28,> 100 µM (inactive)
same,GI50,MDA-MB-231,> 100 µM (inactive)
same,GI50,OVCAR-8,> 100 µM (inactive)
same,GI50,M14,> 100 µM (inactive)
same,GI50,NCI-H460,> 100 µM (inactive)
same,GI50,Malme-3M,> 100 µM (inactive)
same,GI50,HL-60,> 100 µM (inactive)
same,GI50,NCI/ADR-RES,> 100 µM (inactive)
same,GI50,UACC-257,> 100 µM (inactive)
same,GI50,EKVX,> 100 µM (inactive)
same,GI50,ACHN,> 100 µM (inactive)
same,GI50,CCRF-CEM,> 100 µM (inactive)
same,GI50,KM12,> 100 µM (inactive)
same,GI50,UO-31,> 100 µM (inactive)
same,GI50,OVCAR-3,> 100 µM (inactive)
same,GI50,SW-620,> 100 µM (inactive)
same,GI50,MOLT-4,> 100 µM (inactive)
same,GI50,HOP-92,> 100 µM (inactive)
same,GI50,K562,> 100 µM (inactive)
same,GI50,Hs-578T,> 100 µM (inactive)
same,GI50,SK-OV-3,> 100 µM (inactive)
same,GI50,786-0,> 100 µM (inactive)
same,GI50,CAKI-1,> 100 µM (inactive)
same,GI50,SF-295,> 100 µM (inactive)
same,GI50,SK-MEL-5,> 100 µM (inactive)
same,GI50,LOX IMVI,> 100 µM (inactive)
same,GI50,SF-268,> 100 µM (inactive)
same,GI50,NCI-H226,> 100 µM (inactive)
same,GI50,BT-549,> 100 µM (inactive)
same,GI50,SK-MEL-2,> 100 µM (inactive)
same,GI50,SF-539,> 100 µM (inactive)
same,GI50,SNB-75,> 100 µM (inactive)
same,GI50,RXF 393,> 100 µM (inactive)
same,GI50,NCI-H23,> 100 µM (inactive)
COc1ccc(/C=C(/c2ccc(OC)cc2)c2c(Cl)cc(Cl)c(/C(=C\c3ccc(OC)cc3)c3ccc(OC)cc3)c2/N=N/c2ccccc2)cc1,GI50,DU-145,> 100 µM (inactive)
same,GI50,HCT-116,> 100 µM (inactive)
same,GI50,IGROV-1,> 100 µM (inactive)
same,GI50,T47D,> 100 µM (inactive)
same,GI50,U-251,66.4 µM (inactive)
same,GI50,PC-3,> 100 µM (inactive)
same,GI50,SN12C,> 100 µM (inactive)
same,GI50,MCF7,62.1 µM (inactive)
same,GI50,A498,98.2 µM (inactive)
same,GI50,UACC-62,> 100 µM (inactive)
same,GI50,OVCAR-5,> 100 µM (inactive)
same,GI50,MDA-MB-435,> 100 µM (inactive)
same,GI50,HCC 2998,> 100 µM (inactive)
same,GI50,COLO 205,> 100 µM (inactive)
same,GI50,HOP-62,> 100 µM (inactive)
same,GI50,OVCAR-4,> 100 µM (inactive)
same,GI50,SNB-19,> 100 µM (inactive)
same,GI50,RPMI-8226,> 100 µM (inactive)
same,GI50,HCT-15,> 100 µM
same,GI50,TK-10,> 100 µM (inactive)
same,GI50,A549,> 100 µM (inactive)
same,GI50,NCI-H522,> 100 µM (inactive)
same,GI50,HT-29,> 100 µM (inactive)
same,GI50,SK-MEL-28,> 100 µM (inactive)
same,GI50,MDA-MB-231,> 100 µM (inactive)
same,GI50,OVCAR-8,> 100 µM (inactive)
same,GI50,M14,> 100 µM (inactive)
same,GI50,NCI-H460,> 100 µM (inactive)
same,GI50,Malme-3M,> 100 µM (inactive)
same,GI50,HL-60,> 100 µM (inactive)
same,GI50,NCI/ADR-RES,> 100 µM (inactive)
same,GI50,UACC-257,39.7 µM (inactive)
same,GI50,EKVX,> 100 µM (inactive)
same,GI50,ACHN,72.4 µM (inactive)
same,GI50,CCRF-CEM,50.1 µM (inactive)
same,GI50,KM12,> 100 µM (inactive)
same,GI50,UO-31,> 100 µM (inactive)
same,GI50,OVCAR-3,> 100 µM (inactive)
same,GI50,SW-620,> 100 µM (inactive)
same,GI50,MOLT-4,88.7 µM (inactive)
same,GI50,HOP-92,> 100 µM (inactive)
same,GI50,K562,45.1 µM (inactive)
same,GI50,Hs-578T,> 100 µM (inactive)
same,GI50,SK-OV-3,> 100 µM (inactive)
same,GI50,786-0,> 100 µM (inactive)
same,GI50,CAKI-1,> 100 µM (inactive)
same,GI50,SF-295,> 100 µM (inactive)
same,GI50,SK-MEL-5,> 100 µM (inactive)
same,GI50,LOX IMVI,> 100 µM (inactive)
same,GI50,SF-268,> 100 µM (inactive)
same,GI50,BT-549,> 100 µM (inactive)
same,GI50,SK-MEL-2,> 100 µM (inactive)
same,GI50,SF-539,34.4 µM (inactive)
same,GI50,SNB-75,> 100 µM (inactive)
same,GI50,RXF 393,> 100 µM (inactive)
same,GI50,NCI-H23,> 100 µM (inactive)

# Source: ChEMBL document CHEMBL1201862, “PubChem BioAssay data set” (2004)
